SMILES strings stand for the structures.

The target in one assay is T1, human H4 receptor (Homo sapiens, UniProt Q9H3N8).
T1 construct: expressed in transfected cells
T1 sequence (Q9H3N8 whole entry): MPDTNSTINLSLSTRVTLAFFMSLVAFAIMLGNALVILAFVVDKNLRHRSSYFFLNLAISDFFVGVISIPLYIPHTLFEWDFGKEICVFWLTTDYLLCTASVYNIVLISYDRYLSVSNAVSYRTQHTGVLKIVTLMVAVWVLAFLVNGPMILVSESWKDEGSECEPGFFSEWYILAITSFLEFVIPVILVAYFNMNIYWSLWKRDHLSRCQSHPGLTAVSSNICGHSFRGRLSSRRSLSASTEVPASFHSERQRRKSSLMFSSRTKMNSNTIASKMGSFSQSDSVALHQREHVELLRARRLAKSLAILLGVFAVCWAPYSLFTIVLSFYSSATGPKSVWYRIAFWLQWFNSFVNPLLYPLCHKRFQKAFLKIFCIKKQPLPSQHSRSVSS
The experiment in a line: Binding Assay on Recombinant Human Histamine H4 Receptor. As to conditions: Table 1; [3H] histamine competition binding, membranes of SK-N-MC cells transfected with human H4 receptor; average of results. Here is the method:
Binding Assay on Recombinant Human Histamine H4 Receptor.
Cell pellets from SK-N-MC cells stably or transiently transfected with human H4 receptor were used for the binding assays. Cell pellets were homogenized in 50 mM Tris/5 mM EDTA buffer and supernatants from an 800g spin were collected and recentrifuged at 30,000g for 30 min. Pellets were rehomogenized in 50 mM Tris/5 mM EDTA buffer. […] Compounds were tested in free base, hydrochloride salt, or trifluoroacetic acid form. Nonspecific binding was defined with 100 μM cold histamine. […] Membranes were harvested by rapid filtration using the 96 well Brandel system or a cell harvester using a Whatman GF/C filter or filter plates treated with 0.5% polyethylenimine (PEI), and washed 4 times with ice-cold 50 mM Tris/5 mM EDTA buffer. Filters were then dried, mixed with scintillant and radioactive counts were determined. […] Data marked with an asterisk (*) were obtained by the cell harvester method. Where activity is shown as greater than (>) a particular value, the value is the highest concentration tested.
Regarding `Nc1nc(C2CCOC2)cc(N2CCNCC2)n1` (stereo not shown) [Example 56, 4-piperazin-1-yl-6-(tetrahydro-furan-3-yl)-pyrimidin-2-ylamine], the Ki came to 0.02 µM.
On the same count and under the same terms, the result for `Nc1nc(C2CCOCC2)cc(N2C[C@H]3CCCN[C@H]3C2)n1` [Example 61, (R,R)-4-(Octahydro-pyrrolo[3,4-b]pyridin-6-yl)-6-(tetrahydro-pyran-4-yl)-pyrimidin-2-ylamine] reads 0.024 µM; that for `CC(C)c1cc(N2CC3CCCNC3C2)nc(N)n1` (stereo not drawn) [Example 19, 4-Isopropyl-6-(cis-octahydro-pyrrolo[3,4-b]pyridin-6-yl)-pyrimidin-2-ylamine], 0.008 µM.
Turning to `CCc1cc(N2CC[C@@H](N)C2)nc(N)n1` [Example 35, (R)-4-(3-Amino-pyrrolidin-1-yl)-6-ethyl-pyrimidin-2-ylamine], the Ki was 0.021 µM.
For the compound `CN1CCN(c2cc(C3CCCC3)nc(N)n2)CC1` [Example 2, 4-Cyclopentyl-6-(4-methyl-piperazin-1-yl)-pyrimidin-2-ylamine], the Ki is 0.001 µM.
On the same count and under the same terms, the result for `CN[C@@H]1CCN(c2cc(C3CCOCC3)nc(N)n2)C1` [Example 60, (R)-4-(3-Methylamino-pyrrolidin-1-yl)-6-(tetrahydro-pyran-4-yl)-pyrimidin-2-ylamine] reads 0.031 µM; that for `CN1CCN(c2cc(C3CCC3)nc(N)n2)CC1` [Example 44, 4-Cyclobutyl-6-(4-methyl-piperazin-1-yl)-pyrimidin-2-ylamine], 0.001 µM; that for `CNC1CN(c2cc(C3CCCC3)nc(N)n2)CC1O` (stereo not drawn) [Example 5, trans-1-(2-Amino-6-cyclopentyl-pyrimidin-4-yl)-4-methylamino-pyrrolidin-3-ol], 0.03 µM.
`Cc1cc(N2CCNCC2)nc(N)n1` [Example 21, 4-Methyl-6-piperazin-1-yl-pyrimidin-2-ylamine]: the Ki was found to be 0.029 µM.
Turning to `CN1CCN(c2nc(N)nc3c2CCCC3)CC1` [Example 66, 4-(4-Methyl-piperazin-1-yl)-5,6,7,8-tetrahydro-quinazolin-2-ylamine], the Ki worked out at 0.004 µM.

Staying with this assay, now noted: Table 2, data marked with an asterisk (*): obtained by the cell harvester method; [3H] histamine competition binding, SK-N-MC membranes.
For the compound `CCCCc1nc(N)nc(N2CC(N)C2)c1OC` [Example 103, 4-(3-Amino-azetidin-1-yl)-6-butyl-5-methoxy-pyrimidin-2-ylamine], the Ki is 0.022 µM.

Still in this assay, the particulars now being: Table 2; [3H] histamine competition binding, membranes of SK-N-MC cells transfected with human H4 receptor; average of results.
For `Nc1nc(Cc2ccccc2)cc(N2CC[C@@H](N)C2)n1` [Example 167, (R)-4-(3-Amino-pyrrolidin-1-yl)-6-benzyl-pyrimidin-2-ylamine], the Ki was 0.078 µM.
Same read-out and setting: the result for `CN1CCN(c2cc(Cc3ccncc3)nc(N)n2)CC1` [Example 206, 4-(4-Methyl-piperazin-1-yl)-6-pyridin-4-ylmethyl-pyrimidin-2-ylamine] reads 0.081 µM; that for `CN[C@@H]1CCN(c2cc(CCc3ccccc3)nc(N)n2)C1` [Example 180, (R)-4-(3-Methylamino-pyrrolidin-1-yl)-6-phenethyl-pyrimidin-2-ylamine], 0.008 µM.
As to `Nc1nc(C2CCCC2)cc(N2C[C@H]3CCCN[C@H]3C2)n1` [Example 81, (R,R)-4-Cyclopentyl-6-(octahydro-pyrrolo[3,4-b]pyridin-6-yl)-pyrimidin-2-ylamine], the Ki is 0.002 µM.
Same read-out and setting: the result for `Nc1nc(C2CC2)cc(N2CCNCC2)n1` [Example 121, 4-Cyclopropyl-6-piperazin-1-yl-pyrimidin-2-ylamine] reads 0.003 µM.
`CN[C@@H]1CCN(c2cc(C3CC3c3ccccc3)nc(N)n2)C1` (single isomer, unassigned) [Example 255]: the Ki came to 0.034 µM.
On the same count and under the same terms, the result for `Nc1nc(C2CC2c2ccccc2)cc(N2CC[C@@H](N)C2)n1` (stereo in doubt) [Example 157, (R)-4-(3-Amino-pyrrolidin-1-yl)-6-(trans-2-phenyl-cyclopropyl)-pyrimidin-2-ylamine] reads 0.029 µM; that for `NCCNc1cc(Cc2cccs2)nc(N)n1` [Example 218, N^4-(2-Amino-ethyl)-6-thiophen-2-ylmethyl-pyrimidine-2,4-diamine], 0.02 µM.
Take `CC(C)(C)c1cc(N2CC[C@H](N)C2)nc(N)n1` [Example 129, (S)-4-(3-Amino-pyrrolidin-1-yl)-6-tert-butyl-pyrimidin-2-ylamine]: the Ki was determined as 0.046 µM.
For the compound `CN1C[C@@H]2CN(c3cc(CC4CCCO4)nc(N)n3)C[C@@H]2C1` (stereo partly drawn) [Example 229, 4-(cis-5-Methyl-hexahydro-pyrrolo[3,4-c]pyrrol-2-yl)-6-(tetrahydro-furan-2-ylmethyl)-pyrimidin-2-ylamine], the Ki was 0.36 µM.
For the compound `CCCCc1nc(N)nc(N2CC[C@H](NC)C2)c1OC` [Example 107, (S)-4-Butyl-5-methoxy-6-(3-methylamino-pyrrolidin-1-yl)-pyrimidin-2-ylamine], the inhibition constant (Ki) was 0.104 µM.
Still for that read-out and setting: to `Cc1nc(N)nc(N2CCNCC2)c1F` [Example 201, 5-Fluoro-4-methyl-6-piperazin-1-yl-pyrimidin-2-ylamine] belongs 0.391 µM; to `CN[C@@H]1CCN(c2nc(N)nc(C)c2F)C1` [Example 202, (R)-5-Fluoro-4-methyl-6-(3-methylamino-pyrrolidin-1-yl)-pyrimidin-2-ylamine], 0.515 µM.
The same measure, in the same setting: to `Nc1nc(CC2CCCO2)cc(N2CCNCC2)n1` (stereo not shown) [Example 230, 4-piperazin-1-yl-6-(tetrahydro-furan-2-ylmethyl)-pyrimidin-2-ylamine] belongs 0.025 µM.
Turning to `CC(C)c1cc(N2CC3NCCOC3C2)nc(N)n1` (single isomer, unassigned) [Example 93, 4-(cis-Hexahydro-pyrrolo[3,4-b][1,4]oxazin-6-yl)-6-isopropyl-pyrimidin-2-ylamine], the Ki came to 0.481 µM.
The same measure, in the same setting: to `Nc1nc(C2CCOCC2)cc(N2CC[C@@H](N)C2)n1` [Example 249, (R)-4-(3-Amino-pyrrolidin-1-yl)-6-(tetrahydro-pyran-4-yl)-pyrimidin-2-ylamine] belongs 0.087 µM.
`Nc1nc(Cc2ccncc2)cc(N2CCNCC2)n1` [Example 204, 4-piperazin-1-yl-6-pyridin-4-ylmethyl-pyrimidin-2-ylamine]: the Ki was found to be 0.045 µM.
For `Cc1nc(N)nc(N2CC3CCCNC3C2)c1F` (stereo not shown) [Example 200, 5-Fluoro-4-methyl-6-(octahydro-pyrrolo[3,4-b]pyridin-6-yl)-pyrimidin-2-ylamine], the Ki was determined as 0.235 µM.
Same read-out and setting: to `CN[C@@H]1CCN(c2cc(C3CC3c3ccccc3)nc(N)n2)C1` (single isomer, unassigned) [Example 256] belongs 0.005 µM.
Consider `COc1c(NCCN)nc(N)nc1C1CCCC1` [Example 116, N^4-(2-Amino-ethyl)-6-cyclopentyl-5-methoxy-pyrimidine-2,4-diamine], for which the Ki came to 0.064 µM.
Same read-out and setting: the result for `CN[C@@H]1CCN(c2cc(C3CCOC3)nc(N)n2)C1` (stereo partly drawn) [Example 191, (R)-4-(3-Methylamino-pyrrolidin-1-yl)-6-(tetrahydro-furan-3-yl)-pyrimidin-2-ylamine] reads 0.012 µM.
The same measure, in the same setting: the result for `CN[C@@H]1CCN(c2cc(Cc3cccs3)nc(N)n2)C1` [Example 214, (R)-4-(3-Methylamino-pyrrolidin-1-yl)-6-thiophen-2-ylmethyl-pyrimidin-2-ylamine] reads 0.019 µM; that for `CCCCc1nc(N)nc(N2CCN(C)CC2)c1OC` [Example 108, 4-Butyl-5-methoxy-6-(4-methyl-piperazin-1-yl)-pyrimidin-2-ylamine], 0.084 µM.
Still for that read-out and setting: to `Nc1nc(Cc2cccs2)cc(N2CC3CCCNC3C2)n1` (stereo not drawn) [Example 217, 4-(cis-Octahydro-pyrrolo[3,4-b]pyridin-6-yl)-6-thiophen-2-ylmethyl-pyrimidin-2-ylamine] belongs 0.009 µM.
As to `Nc1nc(C2CC2c2ccccc2)cc(N2CCNCC2)n1` (stereo not drawn) [Example 156, 4-(trans-2-Phenyl-cyclopropyl)-6-piperazin-1-yl-pyrimidin-2-ylamine], the Ki stood at 0.012 µM.
Same read-out and setting: to `CN1CCN(c2cc(C3Cc4ccccc4C3)nc(N)n2)CC1` [Example 163, 4-Indan-2-yl-6-(4-methyl-piperazin-1-yl)-pyrimidin-2-ylamine] belongs 0.002 µM; to `COCc1cc(N2CC[C@@H](N)C2)nc(N)n1` [Example 222, (R)-4-(3-Amino-pyrrolidin-1-yl)-6-methoxymethyl-pyrimidin-2-ylamine], 0.023 µM.
With `Nc1nc(Cc2ccc(Cl)cc2)cc(N2CCNCC2)n1` [Example 233, 4-(4-Chloro-benzyl)-6-piperazin-1-yl-pyrimidin-2-ylamine], the Ki came out at 0.012 µM.
For `Nc1nc2c(c(N3C[C@H]4CCCN[C@H]4C3)n1)COCC2` [Example 97, (R,R)-4-(Octahydro-pyrrolo[3,4-b]pyridin-6-yl)-7,8-dihydro-5H-pyrano[4,3-d]pyrimidin-2-ylamine], the Ki worked out at 0.02 µM.
Still for that read-out and setting: to `CN1C[C@@H]2CN(c3cc(C4CCCC4)nc(N)n3)C[C@@H]2C1` [Example 82, 4-Cyclopentyl-6-(cis-5-methyl-hexahydro-pyrrolo[3,4-c]pyrrol-2-yl)-pyrimidin-2-ylamine] belongs 0.025 µM; to `COCc1cc(N2CC[C@H](N)C2)nc(N)n1` [Example 118, (S)-4-(3-Amino-pyrrolidin-1-yl)-6-methoxymethyl-pyrimidin-2-ylamine], 0.242 µM; to `Nc1nc(CCc2ccccc2)cc(N2CC(N)C2)n1` [Example 248, 4-(3-Amino-azetidin-1-yl)-6-phenethyl-pyrimidin-2-ylamine], 0.009 µM.

Broadly, the Ki is the equilibrium dissociation constant of an inhibitor or competing ligand from its target.

The values above are taken from patent US8716475B2, “2-aminopyrimidine modulators of the histamine H4 receptor” (Janssen Pharmaceutica NV, priority 2007, dated 2014).
